Among the data in ChEMBL document CHEMBL2057192, “Small molecular weight PEGylation of diosgenin in an in vivo animal study for diabetic auditory impairment treatment” (Bioorg Med Chem Lett, 2012) are Activity, bioavailability and logP values, retold here.

Series [1] concerns Mus musculus. Put plainly: Antidiabetic activity in streptozotocin-induced diabetic ICR mouse assessed as change in blood glucose level at 20 mg/kg, po administered QD measured 9 weeks after STZ challenge (reference value: 529.90 +/- 49.17 mg/dl). It is filed as functional.
Series [2] deals with Mus musculus. Put plainly: Antidiabetic activity in streptozotocin-induced diabetic ICR mouse assessed as change in blood glucose level at 10 mg/kg, po administered QD measured 1 week after STZ challenge (reference value: 516.33 +/- 46.73 mg/dl). The format is functional.
Series [3] has as its system Mus musculus. Put plainly: Protective activity against hearing loss in streptozotocin-induced diabetic ICR mouse assessed as increase in signal intensity-to-noise ratio at 10 mg/kg, po administered QD measured after 8 weeks by transient evoked otoacoustic emission test. It is filed as functional, organism-based. Also noted: dose 10 mg/kg.
The test system of series [4] is Mus musculus. Put plainly: Protective activity against hearing loss in streptozotocin-induced diabetic ICR mouse using 4 KHz tone bursts at 10 mg/kg, po administered QD measured after 8 weeks by auditory brainstem response test. The arrangement: dose 10 mg/kg. The format is functional, organism-based.
Series [5] concerns Mus musculus. Put plainly: Protective activity against hearing loss in streptozotocin-induced diabetic ICR mouse assessed as decrease in positive A peak latency at 10 mg/kg, po administered QD measured after 8 weeks by auditory middle latency response test. The format is functional, organism-based. The arrangement: dose 10 mg/kg.
In series [6] the test system is Mus musculus. As to the kind of experiment: Protective activity against hearing loss in streptozotocin-induced diabetic ICR mouse assessed as increase in negative A peak-positive A peak amplitude at 10 mg/kg, po administered QD measured after 8 weeks by auditory middle latency response test. The format is functional, organism-based. Also noted: dose 10 mg/kg.
Series [7] has as its system Mus musculus. As to the kind of experiment: Antidiabetic activity in streptozotocin-induced diabetic ICR mouse assessed as change in blood glucose level at 20 mg/kg, po administered QD measured 1 week after STZ challenge (reference value: 516.33 +/- 46.73 mg/dl). It is filed as functional.
For series [8], the system named is Mus musculus. As to the kind of experiment: Protective activity against hearing loss in streptozotocin-induced diabetic ICR mouse using 8 KHz tone bursts at 10 mg/kg, po administered QD measured after 8 weeks by auditory brainstem response test. It is filed as functional, organism-based. Also noted: dose 10 mg/kg.
In series [9] the test system is Mus musculus. Put plainly: Protective activity against hearing loss in streptozotocin-induced diabetic ICR mouse assessed as increase in signal intensity-to-noise ratio at 20 mg/kg, po administered QD measured after 8 weeks by transient evoked otoacoustic emission test. The format is functional, organism-based. The arrangement: dose 20 mg/kg.
In series [10] the test system is Mus musculus. Put plainly: Protective activity against hearing loss in streptozotocin-induced diabetic ICR mouse using 8 KHz tone bursts at 20 mg/kg, po administered QD measured after 8 weeks by auditory brainstem response test. It is filed as functional, organism-based. The arrangement: dose 20 mg/kg.
The subject of series [11] is Mus musculus. As to the kind of experiment: Antidiabetic activity in streptozotocin-induced diabetic ICR mouse assessed as change in body weight at 20 mg/kg, po administered QD measured 9 weeks after STZ challenge (reference value: 34.15 +/- 1.16 g). It is filed as functional.
Series [12] relates to Mus musculus. As to the kind of experiment: Antidiabetic activity in streptozotocin-induced diabetic ICR mouse assessed as change in body weight at 20 mg/kg, po administered QD measured 1 week after STZ challenge (reference value: 33.25 +/- 0.75 g). The format is functional.
Series [13] concerns Mus musculus. As to the kind of experiment: Protective activity against hearing loss in streptozotocin-induced diabetic ICR mouse using 4 KHz tone bursts at 20 mg/kg, po administered QD measured after 8 weeks by auditory brainstem response test. It is filed as functional, organism-based. The arrangement: dose 20 mg/kg.
Series [14] has as its system Mus musculus. Put plainly: Antidiabetic activity in streptozotocin-induced diabetic ICR mouse assessed as change in blood glucose level at 10 mg/kg, po administered QD measured 9 weeks after STZ challenge (reference value: 529.90 +/- 49.17 mg/dl). The format is functional.
Series [15] relates to Mus musculus. As to the kind of experiment: Protective activity against hearing loss in streptozotocin-induced diabetic ICR mouse assessed as increase in negative A peak-positive A peak amplitude at 20 mg/kg, po administered QD measured after 8 weeks by auditory middle latency response test. The format is functional, organism-based. Also noted: dose 20 mg/kg.
Series [16] deals with Mus musculus. As to the kind of experiment: Antidiabetic activity in streptozotocin-induced diabetic ICR mouse assessed as change in body weight at 10 mg/kg, po administered QD measured 9 weeks after STZ challenge (reference value: 34.15 +/- 1.16 g). It is filed as functional.
Series [17] deals with Mus musculus. As to the kind of experiment: Antidiabetic activity in streptozotocin-induced diabetic ICR mouse assessed as change in body weight at 10 mg/kg, po administered QD measured 1 week after STZ challenge (reference value: 33.25 +/- 0.75 g). It is filed as functional.
The subject of series [18] is Mus musculus. Put plainly: Protective activity against hearing loss in streptozotocin-induced diabetic ICR mouse assessed as decrease in positive A peak latency at 20 mg/kg, po administered QD measured after 8 weeks by auditory middle latency response test. It is filed as functional, organism-based. The arrangement: dose 20 mg/kg.
Series [19] can be described thus: Oral bioavailability in rat. It is filed as ADME, organism-based. Particulars: in vivo.
Series [20] is described as follows: Lipophilicity, log P of the compound. The format is physicochemical. As to conditions: octanol/water.

Each structure is given as a SMILES string. The source made the active and inactive calls. No cut-off for these calls is given here. Where only a bound is given, the exact number is not on record here.

Turning to `COCCOCCOCCOCCO[C@H]1CC[C@@]2(C)C(=CC[C@H]3[C@@H]4C[C@@H]5O[C@]6(CC[C@@H](C)CO6)[C@@H](C)[C@@H]5[C@@]4(C)CC[C@@H]32)C1`, the Activity is 501.6 mg/dL in the series on Mus musculus [1]; 522.18 mg/dL in the series with Mus musculus [2]; 582.8 mg/dL with Mus musculus [7]; 37.6 g with Mus musculus [11]; 32.55 g with Mus musculus [12]; 565.56 mg/dL with Mus musculus [14]. Also, the values for the Activity in the series with Mus musculus [16] and in the series with Mus musculus [17] were 33.72 g and 30.5 g, respectively. For the same molecule, the outcome with Mus musculus [3], in the series on Mus musculus [4], in the series on Mus musculus [5], with Mus musculus [6], with Mus musculus [8] and with Mus musculus [9] was Active. The result with Mus musculus [10], in the series with Mus musculus [13], in the series on Mus musculus [15] and in the series on Mus musculus [18] was Active.
The term bioavailability denotes the share of a dose that reaches the circulation, judged against a reference dose that is usually intravenous. Low readings indicate poor availability, high ones good availability. On to `C[C@@H]1CC[C@@]2(OC1)O[C@H]1C[C@H]3[C@@H]4CC=C5C[C@@H](O[C@@H]6O[C@H](CO)[C@@H](O[C@@H]7O[C@@H](C)[C@H](O)[C@@H](O)[C@H]7O)[C@H](O)[C@H]6O[C@@H]6O[C@@H](C)[C@H](O)[C@@H](O)[C@H]6O)CC[C@]5(C)[C@H]4CC[C@]3(C)[C@H]1[C@@H]2C` [DIOSCIN], for which the bioavailability in series [19] stood at 0.2%.
`C[C@@H]1CC[C@@]2(OC1)O[C@H]1C[C@H]3[C@@H]4CC=C5C[C@@H](O[C@@H]6O[C@H](CO)[C@@H](O)[C@H](O)[C@H]6O)CC[C@]5(C)[C@H]4CC[C@]3(C)[C@H]1[C@@H]2C` [DISOGLUSIDE]: the Activity in the series with Mus musculus [1] was 592.33 mg/dL; in the series with Mus musculus [2], 583.55 mg/dL; in the series with Mus musculus [7], 571.75 mg/dL; in the series on Mus musculus [11], 34.92 g; with Mus musculus [12], 31.58 g; in the series on Mus musculus [14], “>=600 mg/dl”. In addition, the Activity in the series on Mus musculus [16] came to 33.39 g; in the series on Mus musculus [17], 33.17 g. Besides, the outcome in the series on Mus musculus [10], with Mus musculus [13], with Mus musculus [15] and in the series on Mus musculus [18] was Active.
Usually logP stands for the decadic logarithm of the partition coefficient of the neutral form, usually between octanol and water. Consider `C[C@@H]1CC[C@@]2(OC1)O[C@H]1C[C@H]3[C@@H]4CC=C5C[C@@H](O)CC[C@]5(C)[C@H]4CC[C@]3(C)[C@H]1[C@@H]2C` [DISOGENIN], for which the Activity was 598 mg/dL with Mus musculus [1]; “>=600 mg/dl” in the series with Mus musculus [2]; 574.17 mg/dL with Mus musculus [7]; 38.67 g in the series with Mus musculus [11]; 33.67 g in the series with Mus musculus [12]; “>=600 mg/dl” in the series with Mus musculus [14]. Besides, the values for the Activity in the series with Mus musculus [16] and in the series with Mus musculus [17] were 38.33 g and 32.83 g, respectively. This molecule had a logP in series [20] of 5.7.
